No end group written: not given here.
How the values were obtained:
[1] = test system: patients with ischemic heart disease; experiment: Treatment of patients with ischemic heart disease and high blood pressure; assay type: in vivo, human; conditions: six patients, 1 mg every 12 hours intravenously for seven days
Experimental: It is exemplified with the results of six patients. They presented ischemic heart disease, associated with high blood pressure, which produced a state of severity. They were treated in the Intermediate Care Unit (IMCU) of the “Luis Diaz Soto” hospital in Havana. These patients were treated with a pharmaceutical composition comprising the peptide identified as SEQ ID NO: 1, so that a peptide dose of 1 mg every 12 hours was administered intravenously for seven days. In addition, they received the standard therapy needed for these cases.

[2] = test system: patients with RA; conditions: cited from earlier work
[3] = test system: patients with type II diabetes; experiment: Treatment of patients with decompensated type II diabetes; assay type: in vivo, human; conditions: five patients, 1 mg every 12 hours intravenously for eight days
Experimental: It is exemplified with ten patients who had diabetic decompensation and reached a state of severity, that let them to be treated in the ICU of the hospital “Luis Díaz Soto” in Havana. Five of these patients were treated with a pharmaceutical composition comprising the peptide identified as SEQ ID NO: 1, so that a peptide dose of 1 mg every 12 hours was administered intravenously for eight days. In addition, they received the standard therapy needed for these cases.

SIDLKDKYKNIGAKLVQLVANNTNEEA [SEQ ID NO: 1]
side effects (clinical and imaging evaluation, blood biochemistry, differential blood count) [1]: No side effects were observed | safety [2]: proved to be safe | side effects (clinical and imaging evaluation, blood biochemistry, differential blood count) [3]: No side effects were observed
